Assay results reported in patent US20250144067A1, “PERSONALIZED STARVATION THERAPY FOR CANCER” (Faeth Therapeutics, Inc., priority 2021, published 2025).
Structures can show the parent of a compound that is named as a salt. Where two headings read alike, the source gives them in different places.

Experiments:
[1] = system: NCI-H292 lung cancer cells; assay: FDA drug screening, complete media vs cholesterol-free media with simvastatin (TABLE 2); format: cell-based, human
[2] = system: NCI-H292 lung cancer cells; assay: FDA drug screening, complete media vs cholesterol-free media without statin (TABLE 1); format: cell-based, human
[3] = NCI-H292 cells, cholesterol-free media with simvastatin 0.04 μM, FDA drug library screen (TABLE 2)
[4] = NCI-H292 cells, complete media, FDA drug library screen (TABLE 2)
[5] = Complete minus Cholesterol-free, […]
[6] = NCI-H292 cells, FDA drug library screen, cholesterol-free media without statin
[7] = NCI-H292 cells, FDA drug library screen, complete media
[8] = NCI-H292 cells, FDA drug library screen, cholesterol-free media with simvastatin 0.04 μM
[9] = complete media vs cholesterol-free media + simvastatin (0.04 μM), >0 enhanced anti-cancer activity, about 0 neutral, <0 antagonist
[10] = Complete minus Cholesterol-free, >0 enhanced anti-cancer activity, about 0 neutral, <0 antagonist
[11] = NCI-H292 cells, cholesterol-free media without statin
[12] = complete vs cholesterol-free media, greater than 0 enhanced anti-cancer activity, about 0 neutral, below 0 antagonists
[13] = complete media minus cholesterol-free media + simvastatin (0.04 μM), >0 enhanced anti-cancer activity, about 0 neutral, <0 antagonist
[14] = NCI-H292 cells, cholesterol-free media without statin, FDA drug library screen
[15] = NCI-H292 cells, complete media, FDA drug library screen
[16] = complete media minus cholesterol-free media + simvastatin, >0 enhanced anti-cancer activity, about 0 neutral, <0 antagonist
[17] = Complete minus Cholesterol-free, greater than 0 enhanced anti-cancer activity, about 0 neutral, below 0 antagonist
[18] = Complete minus Cholesterol-free, greater than 0 enhanced anti-cancer activity, about 0 neutral, below 0 antagonists
[19] = NCI-H292 cells in cholesterol-free media without statin
[20] = NCI-H292 cells in complete media
[21] = complete media vs cholesterol-free media + simvastatin (0.04 μM), […]
[22] = NCI-H292 cells, drug in cholesterol-free media with simvastatin 0.04 μM
[23] = NCI-H292 cells, drug in complete media
[24] = NCI-H292 cells, FDA library drug in cholesterol-free media with simvastatin 0.04 μM
[25] = NCI-H292 cells, FDA library drug in complete media

## CC[C@H](C)[C@H](NC(=O)[C@H](CCC(=O)O)NC(=O)[C@H](CO)NC(=O)[C@@H](NC(=O)[C@@H](N)CO)C(C)C)C(=O)N[C@@H](CCC(N)=O)C(=O)N[C@@H](CC(C)C)C(=O)N[C@@H](CCSC)C(=O)N[C@@H](Cc1cnc[nH]1)C(=O)N[C@@H](CC(N)=O)C(=O)N[C@@H](CC(C)C)C(=O)NCC(=O)N[C@@H](CCCCN)C(=O)N[C@@H](Cc1cnc[nH]1)C(=O)N[C@@H](CC(C)C)C(=O)N[C@@H](CC(N)=O)C(=O)N[C@@H](CO)C(=O)N[C@@H](CCSC)C(=O)N[C@@H](CCC(=O)O)C(=O)N[C@@H](CCCN=C(N)N)C(=O)N[C@H](C(=O)N[C@@H](CCC(=O)O)C(=O)N[C@@H](Cc1c[nH]c2ccccc12)C(=O)N[C@@H](CC(C)C)C(=O)N[C@@H](CCCN=C(N)N)C(=O)N[C@@H](CCCCN)C(=O)N[C@@H](CCCCN)C(=O)N[C@@H](CC(C)C)C(=O)N[C@@H](CCC(N)=O)C(=O)N[C@@H](CC(=O)O)C(=O)N[C@H](C(=O)N[C@@H](Cc1cnc[nH]1)C(=O)N[C@@H](CC(N)=O)C(=O)N[C@@H](Cc1ccccc1)C(=O)O)C(C)C)C(C)C [Teriparatide]
[1]; [3]
  Cholesterol-free media + simvastatin (0.04 μM): 1.048
[1]; [4]
  Complete Media: 1.02
[1]; complete media minus cholesterol-free media + simvastatin (0.04 μM), […]
  Difference: −0.03
[2]; [5]
  Difference: −0.19
[2]; [6]
  Cholesterol-free: 1.061
[2]; [7]
  Complete: 0.8757

## Cc1ncc([N+](=O)[O-])n1CCOC(=O)c1ccccc1 [Metronidazole Benzoate]
[1]; [8]
  Cholesterol-free media + simvastatin (0.04 μM): 1.104
[1]; [7]
  Complete Media: 1
[1]; [9]
  Difference: −0.10
[2]; [10]
  Difference: −0.30
[2]; [11]
  Cholesterol-free: 1.298
[2]; NCI-H292 cells, complete media
  Complete: 1.001

## Sc1ncnc2nc[nH]c12 [6-Mercaptopurine]
[1]; [8]
  Cholesterol-free media + simvastatin (0.04 μM): 1.121
[1]; [7]
  Complete Media: 0.9807
[1]; [9]
  Difference: −0.14
[2]; [10]
  Difference: −0.28
[2]; [11]
  Cholesterol-free: 0.7087
[2]; NCI-H292 cells, complete media
  Complete: 0.4285

## COc1cc2c(cc1OC)CC(=O)N(CCCN(C)C[C@H]1Cc3cc(OC)c(OC)cc31)CC2 [Ivabradine (hydrochloride)]
[1]; [8]
  Cholesterol-free media + simvastatin (0.04 μM): 1.338
[1]; [7]
  Complete Media: 1.217
[1]; [9]
  Difference: −0.12
[2]; [12]
  Difference: −0.47

## Cc1cc(C(=O)NNCc2ccccc2)no1 [Isocarboxazid]
[1]; [3]
  Cholesterol-free media + simvastatin (0.04 μM): 1.551
[1]; [4]
  Complete Media: 1.506
[1]; [13]
  Difference: −0.05
[2]; [14]
  Cholesterol-free: 0.685
[2]; [15]
  Complete: 1.428
[2]; complete vs cholesterol-free media, >0 enhanced anti-cancer activity, about 0 neutral, <0 antagonist
  Difference: 0.74

## CC(C(=O)O)c1ccc2c(c1)[nH]c1ccc(Cl)cc12 (centres unmarked) [Carprofen]
[1]; NCI-H292 cells, cholesterol-free media with simvastatin 0.04 μM, cell growth value in FDA drug screen
  Cholesterol-free media + simvastatin (0.04 μM): 0.8634
[1]; NCI-H292 cells, complete media, cell growth value in FDA drug screen
  Complete Media: 0.98
[1]; [16]
  Difference: 0.12
[2]; [17]
  Difference: −0.18
[2]; [6]
  Cholesterol-free: 1.071
[2]; [7]
  Complete: 0.886

## Cc1oc(=O)oc1COC(=O)C1=C([C@H]2CCCO2)S[C@@H]2[C@@H]([C@@H](C)O)C(=O)N12 [Faropenem daloxate]
[1]; [8]
  Cholesterol-free media + simvastatin (0.04 μM): 1.071
[1]; [7]
  Complete Media: 0.9664
[1]; [9]
  Difference: −0.10
[2]; [18]
  Difference: −0.54
[2]; [19]
  Cholesterol-free: 1.449
[2]; [20]
  Complete: 0.9042

## Selumetinib (sulfate)
[1]; [8]
  Cholesterol-free media + simvastatin (0.04 μM): 0.2941
[1]; [21]
  Difference: −0.10
[2]; [5]
  Difference: −0.06
[2]; [14]
  Cholesterol-free: 0.3932
[2]; [15]
  Complete: 0.3287

## CCCCCCOC(=O)CCC(=O)CN [Hexaminolevulinate (hydrochloride)]
[1]; [22]
  Cholesterol-free media + simvastatin (0.04 μM): 1.074
[1]; [23]
  Complete Media: 0.8971
[1]; [9]
  Difference: −0.18
[2]; [10]
  Difference: 0.00
[2]; [14]
  Cholesterol-free: 0.7384
[2]; [15]
  Complete: 0.7376

## CN(C)C(=O)Oc1ccc[n+](C)c1.[Br-] [Pyridostigmine (bromide)]
[1]
  Cholesterol-free media + simvastatin (0.04 μM): 1.546
  Complete Media: 1.09
  Difference: −0.46
[2]
  Cholesterol-free: 0.882
  Complete: 0.9353
  Difference: 0.05

## CN/C(=N/CCSCc1nc[nH]c1C)NC#N [Cimetidine]
[1]; [24]
  Cholesterol-free media + simvastatin (0.04 μM): 1.358
[1]; [25]
  Complete Media: 0.952
[1]; [9]
  Difference: −0.41
[2]; [18]
  Difference: −0.70
[2]; [19]
  Cholesterol-free: 1.504
[2]; [20]
  Complete: 0.8083

## COc1c2occc2cc2ccc(=O)oc12 [Methoxsalen]
[1]; [24]
  Cholesterol-free media + simvastatin (0.04 μM): 1.34
[1]; [25]
  Complete Media: 0.9575
[1]; [9]
  Difference: −0.38
[2]; [18]
  Difference: −0.72
[2]; [19]
  Cholesterol-free: 1.514
[2]; [20]
  Complete: 0.7902

## O=C1CCCC(=O)C1C(=O)c1ccc(C(F)(F)F)cc1[N+](=O)[O-] [Nitisinone]
[1]; [8]
  Cholesterol-free media + simvastatin (0.04 μM): 0.9427
[1]; [7]
  Complete Media: 1.188
[1]; [16]
  Difference: 0.25
[2]; [17]
  Difference: −0.08
[2]; [6]
  Cholesterol-free: 0.8746
[2]; [7]
  Complete: 0.7963

## CCCCC[C@H](O)/C=C/[C@@H]1[C@@H](C/C=C\CCCC(=O)O)[C@@H](O)C[C@H]1O.NC(CO)(CO)CO [Dinoprost (tromethamine salt)]
[1]; [24]
  Cholesterol-free media + simvastatin (0.04 μM): 1.671
[1]; [25]
  Complete Media: 1.083
[1]; [9]
  Difference: −0.59
[2]; [11]
  Cholesterol-free: 1.291
[2]; NCI-H292 cells, complete media
  Complete: 0.9605
[2]; [12]
  Difference: −0.33

## NCCC[C@H](N)C(=O)O [L-Ornithine]
[1]; [8]
  Cholesterol-free media + simvastatin (0.04 μM): 0.9484
[1]; [7]
  Complete Media: 1.47
[1]; [16]
  Difference: 0.52
[2]; [11]
  Cholesterol-free: 1.429
[2]; NCI-H292 cells, complete media
  Complete: 1.042
[2]; [12]
  Difference: −0.39

## CC(=O)c1c(C)c2cnc(Nc3ccc(N4CCNCC4)cn3)nc2n(C2CCCC2)c1=O.O=S(=O)(O)CCO [Palbociclib (isethionate)]
[1]; [3]
  Cholesterol-free media + simvastatin (0.04 μM): 0.7514
[1]; [4]
  Complete Media: 0.6914
[1]; [13]
  Difference: −0.06
[2]; [10]
  Difference: −0.25
[2]; [11]
  Cholesterol-free: 0.905
[2]; NCI-H292 cells, complete media
  Complete: 0.6502

## COC(=O)c1cccc(CCN(C)CCC[C@@](C#N)(c2ccc(OC)c(OC)c2)C(C)C)c1 [Etripamil]
[1]; NCI-H292 cells, cholesterol-free media with simvastatin 0.04 μM, […]
  Cholesterol-free media + simvastatin (0.04 μM): 0.8109
[1]; NCI-H292 cells, complete media, […]
  Complete Media: 0.8724
[1]; complete media minus cholesterol-free media + simvastatin, […]
  Difference: 0.06
[2]; [11]
  Cholesterol-free: 1.343
[2]; NCI-H292 cells, complete media
  Complete: 0.9721
[2]; complete vs cholesterol-free media, […]
  Difference: −0.37

## CCOC(CN1CCN(CC(C)C(=O)c2ccccc2)CC1)c1ccccc1 (centres unmarked) [Eprazinone (dihydrochloride)]
[1]; [3]
  Cholesterol-free media + simvastatin (0.04 μM): 0.9386
[1]; [4]
  Complete Media: 0.9227
[1]; [13]
  Difference: −0.02
[2]; [17]
  Difference: −0.09
[2]; [6]
  Cholesterol-free: 1.265

## COc1ccc(C(=O)CC(=O)c2ccc(C(C)(C)C)cc2)cc1 [Avobenzone]
[1]; [8]
  Cholesterol-free media + simvastatin (0.04 μM): 1.07
[1]; [7]
  Complete Media: 0.9672
[1]; [9]
  Difference: −0.10
[2]; [18]
  Difference: −0.48
[2]; [19]
  Cholesterol-free: 1.457
[2]; [20]
  Complete: 0.9767

## CC1(C)[C@@H](O[C@H]2O[C@H](C(=O)[O-])[C@@H](O)[C@H](O)[C@H]2O[C@@H]2O[C@H](C(=O)[O-])[C@@H](O)[C@H](O)[C@H]2O)CC[C@]2(C)[C@H]3C(=O)C=C4[C@@H]5C[C@@](C)(C(=O)O)CC[C@]5(C)CC[C@@]4(C)[C@]3(C)CC[C@@H]12.[K+].[K+] [Dipotassium glycyrrhizinate]
[1]; [22]
  Cholesterol-free media + simvastatin (0.04 μM): 1.125
[1]; [23]
  Complete Media: 0.9331
[1]; [21]
  Difference: −0.19
[2]; [5]
  Difference: 0.00
[2]; [14]
  Cholesterol-free: 1.01
[2]; [15]
  Complete: 1.007
